The test system of one series is RAW264.7 macrophages. Kind of series: Cell viability (MTT) cytotoxic assay. It counts as cell-based. The method, then: RAW264.7 macrophages were maintained at a density of 5 × 10^5 cells/mL in RPMI1640 medium supplemented with 10% heat-inactivated FBS, penicillin G (100 units/mL), streptomycin ([…]), and L-glutamine (2 mM), and were incubated at 37 °C in a humidified atmosphere containing 5% CO2. For determination of cell viability, cells (1 × 10^5 cells/well in 96-well plates) were incubated with 3-(4,5-dimethylthiazol-2-yl)-2,5-diphenyltetrazolium bromide (MTT) at a final concentration of 0.5 mg/mL for 3 h, and the formazan formed was dissolved in acidic 2-propanol. The optical density was measured at 540 nm with a microplate reader (BioRad, Hercules, CA, USA). The optical density of the formazan formed in control (untreated) cells was considered to represent 100% viability.

Series [1] has as its system NO production in LPS-treated RAW 264.7 macrophages. The series is described as follows: Inhibition of NO production (nitrite, Griess reaction) in LPS-treated RAW264.7 macrophages. The series is classed as cell-based. The conditions noted are these: for IC50: Mus musculus, RAW264.7 macrophages pre-treated 3 h with compound, then LPS (1 μg/mL) 24 h, Griess reaction; for inhibitory activity on LPS-induced production of NO and PGE2 (in words): LPS-stimulated RAW264.7 macrophages. The method, then:
(§1) All isolated compounds (1–9) were evaluated for their anti-inflammatory effects. […] NO is a small molecule which is an intracellular mediator produced in various immune cells. It plays a pivotal role in the physiological and pathological condition of inflammatory symptoms. PGE2 can also regulate the immune and inflammatory responses. In this study, RAW264.7 macrophages were pre-treated for 3 h in the medium containing non-toxic concentrations (Table 2) of each compound (1–9), and then LPS (1 μg/mL) was treated for 24 h. According to the LPS stimulation of RAW264.7 macrophages, production of NO and PGE2 was increased, and the effects of all compounds on the production level of NO and PGE2 were evaluated by the Griess reaction and a PGE2 kit, respectively. […] To evaluate the impact of phenol and resorcinol groups in the curvularin-type metabolites for the anti-inflammatory activity, 5-O-methyl and 5,7,-di-O-methyl derivatives of curvularin (3a and 3b, respectively), as well as 5-O-acetyl and 5,7,-di-O-acetyl derivatives of curvularin (3c and 3d, respectively), were prepared, and the structures of 3a–3d were identified by comparison the ^1H and ^13C-NMR spectroscopic data with those of curvularin (3), and confirmed by their HRESIMS. […] The position of the methoxy group in 3a was confirmed by HMBC correlation between methoxy signal at δH 3.77 (3H, s, 5-OCH3) and δC 161.8 (C-5). The NOESY cross-peaks between acetyl proton ([…]) with H-2, H-4, and H-16 of 3c were used to identify the position of the acetyl group in 3c. […] Further systematic investigations are needed to clarify the structure activity relationship associated with the modification of the aliphatic part of the molecule.
As an indicator of NO production in RAW264.7 macrophages, production of nitrite, a stable end-product of NO oxidation, was estimated. Briefly, the concentration of nitrite in the conditioned media was determined by a method based on the Griess reaction, and the details of the assay were described previously.

For series [2], the system named is PGE2 production in LPS-treated RAW 264.7 macrophages. Kind of series: Inhibition of PGE2 production (PGE2 ELISA kit) in LPS-treated RAW264.7 macrophages. It counts as cell-based. The following applies: Mus musculus, RAW264.7 macrophages pre-treated 3 h with compound, then LPS (1 μg/mL) 24 h. The method, then:
as §1
RPMI1640, fetal bovine serum (FBS), and other tissue culture reagents were purchased from Gibco BRL Co. (Grand Island, NY, USA). All other chemicals were obtained from Sigma-Aldrich Co. (St. Louis, MO, USA). Primary antibodies (COX-2: sc-1745; iNOS: sc-650; IκB-α: sc-371; p-IκB-α: sc-8404; p50: sc-7178; p65: sc-8008, Santa Cruz Biotechnology, Dallas, TX, USA, p-ERK: #9101; ERK: #9102; p-JNK: #9251; JNK: #9252S; p-p38: #9211; p38: 9212S, Cell Signaling Technology, Danvers, MA, USA) and secondary antibodies (mouse: ap124p; goat: ap106p; rabbit: ap132p, Millipore, Billerica MA, USA). Enzyme-linked immunosorbent assay (ELISA) kits for PGE2 were purchased from R and D Systems, Inc. (Minneapolis, MN, USA).
In general terms: ELISA stands for enzyme-linked immunosorbent assay.

The subject of a further series is E. coli. Details: method as in PMID 26119337. The conditions noted are these: growth of E. coli; cited from earlier work.
For the next series, the system named is iNOS and COX-2. Details: method as in PMID 18366037, PMID 12527810. The following applies: human alveolar epithelial A549/8 cells; through blocking activation of STAT-1α; cited from earlier work.
Series [3] deals with pro-inflammatory cytokines and chemokines. Details: method as in PMID 22767531. The conditions noted are these: mice model of chronic induced arthritis; cited from earlier work.
The next series concerns human iNOS promotor. Also on record: method as in PMID 18366037. The conditions noted are these: human alveolar epithelial A549/8 cells; compared with (S)-curvularin (3); cited from earlier work.

For `COc1cc(O)c2c(c1)CC(=O)O[C@@H](C)CCCCCC2=O` [Compound 3a, 5-O-methylcurvularin], the “Cytotoxicity (the maximum concentration not affecting cell viability)” value in the series on RAW264.7 macrophages (RAW264.7 macrophages, MTT) was greater than 80 µM.

Take `C[C@H]1CCC[C@@H](O)CC(=O)c2c(O)cc(O)cc2CC(=O)O1` [Compound 4, (11R,15S)-11-hydroxycurvularin]: the half-inhibitory concentration (IC50) in series [1] stood at 11.5 ± 2.7 µM; in series [2] it was 15.6 ± 5.2 µM. The “Cytotoxicity (the maximum concentration not affecting cell viability)” value with RAW264.7 macrophages (RAW264.7 macrophages, MTT) is 40 µM. Moreover, the antibacterial activity entry with E. coli was “inhibiting the growth of E. coli”.

With `C[C@H]1CCC/C=C\C(=O)c2c(O)cc(O)cc2CC(=O)O1` [Compound 9, (10Z,15S)-10,11-dehydrocurvularin], the values for the IC50 in series [1] and in series [2] were 4.4 ± 0.8 µM and 6.2 ± 1.1 µM, respectively. The “Cytotoxicity (the maximum concentration not affecting cell viability)” value with RAW264.7 macrophages (RAW264.7 macrophages, MTT) was found to be 20 µM.

As to `CC(=O)Oc1cc(O)c2c(c1)CC(=O)O[C@@H](C)CCCCCC2=O` [Compound 3c, 5-O-acetylcurvularin], the IC50 stood at 46.9 ± 3.7 µM in series [1] and 73.7 ± 17.1 µM in series [2]. Further, the “Cytotoxicity (the maximum concentration not affecting cell viability)” value in the series with RAW264.7 macrophages (RAW264.7 macrophages, MTT) is greater than 80 µM.

Turning to `CC1CCCCCC(=O)c2c(O)cc(O)cc2CC(=O)O1` (centres unmarked) [Compound 3, curvularin], in the series with RAW264.7 macrophages (mouse), the “Cytotoxicity (the maximum concentration not affecting cell viability)” value is 40 µM. In the series with iNOS and COX-2, the “inducible transcription and synthesis of iNOS and COX-2” value was “inhibited inducible transcription and synthesis of iNOS and COX-2”. For the same compound, the “expression of pro-inflammatory cytokines and chemokines” value in series [3] is listed as “suppressive effect”.

With `C[C@H]1CCC[C@H](O)CC(=O)c2c(O)cc(O)cc2CC(=O)O1` [Compound 5, (11S,15S)-11-hydroxycurvularin], the values for the IC50 in series [1] and in series [2] were 7.2 ± 1.6 µM and 14.1 ± 4 µM, respectively. In addition, the “Cytotoxicity (the maximum concentration not affecting cell viability)” value with RAW264.7 macrophages (RAW264.7 macrophages, MTT) came out at 40 µM. The antibacterial activity result in the series with E. coli is given as “inhibiting the growth of E. coli”.

For `C[C@H]1CCC[C@@H](CC(=O)c2c(O)cc(O)cc2CC(=O)O)O1` [Compound 1, curvulone C], in series [1], the “inhibitory activity on LPS-induced production of NO and PGE2 (in words)” value is reported as “appeared to lose the inhibitory activity”; the half-maximal inhibitory concentration (IC50) was greater than 80 µM. For the same compound, the IC50 in series [2] is greater than 80 µM. The “Cytotoxicity (the maximum concentration not affecting cell viability)” value in the series with RAW264.7 macrophages (RAW264.7 macrophages, MTT) was greater than 80 µM.

For `COC(=O)Cc1cc(O)cc(O)c1C(=O)C[C@H]1CCC[C@@H](C)O1` [Compound 2, curvulone B], the “inhibitory activity on LPS-induced production of NO and PGE2 (in words)” value in series [1] is on record as “appeared to lose the inhibitory activity”. Moreover, the IC50 in series [1] and in series [2] was greater than 80 µM in each case. In addition, the “Cytotoxicity (the maximum concentration not affecting cell viability)” value with RAW264.7 macrophages (RAW264.7 macrophages, MTT) is greater than 80 µM.

For the compound `COc1cc2c(c(OC)c1)C(=O)CCCCC[C@H](C)OC(=O)C2` [Compound 3b, 5,7-Di-O-methylcurvularin], the results for the IC50 in series [1] and in series [2] were 60.6 ± 16.4 µM and 49.4 ± 14 µM, respectively. In addition, in the series with RAW264.7 macrophages (RAW264.7 macrophages, MTT), the “Cytotoxicity (the maximum concentration not affecting cell viability)” value was greater than 80 µM.

`CO[C@@H]1CCC[C@H](C)OC(=O)Cc2cc(O)cc(O)c2C(=O)C1` [Compound 6, (11R,15S)-11-methoxycurvularin]: the “Cytotoxicity (the maximum concentration not affecting cell viability)” value with RAW264.7 macrophages (RAW264.7 macrophages, MTT) came to 20 µM.

For the compound `CC(=O)Oc1cc2c(c(OC(C)=O)c1)C(=O)CCCCC[C@H](C)OC(=O)C2` [Compound 3d, 5,7-Di-O-acetylcurvularin], the half-inhibitory concentration (IC50) is 77.5 ± 9.3 µM in series [1] and greater than 80 µM in series [2]. In the series on RAW264.7 macrophages (RAW264.7 macrophages, MTT), the “Cytotoxicity (the maximum concentration not affecting cell viability)” value was greater than 80 µM. Besides, the “inhibitory effect on the cytokine-mediated induction of the iNOS promotor” value in the series with human iNOS promotor is “higher inhibitory effect”.

In the case of `CO[C@H]1CCC[C@H](C)OC(=O)Cc2cc(O)cc(O)c2C(=O)C1` [Compound 7, (11S,15S)-11-methoxycurvularin], the “Cytotoxicity (the maximum concentration not affecting cell viability)” value with RAW264.7 macrophages (RAW264.7 macrophages, MTT) worked out at 20 µM.

The IC50 is the point on the concentration scale where inhibition reaches its midpoint.
